{"source": "paper PMC9865188", "about": "(Pharmaceutics, 2023)", "key": {"[1]": {"settings": "cited from earlier work"}, "[2]": {"assay": "Pharmacokinetic study in Sprague Dawley rats (oral gavage)", "format": "in vivo", "settings": "for concentration at 15 min / Cmax / AUC(0-t) / bioavailability / half-life: male, rat, plasma; for concentration at 15 min / Cmax: Sprague Dawley; for concentration at 15 min: oral, Etoposide C15min; for Cmax / AUC(0-t) / bioavailability / half-life: po; for Cmax: Etoposide Cmax; for AUC(0-t) / bioavailability / half-life: Sprague-Dawley; for AUC(0-t): Etoposide AUC0–6h; for bioavailability: Etoposide bioavailability; for half-life: Etoposide t½", "method": "The study was conducted according to the European Convention for the Protection of Vertebrate Animals used for Experimental and other Scientific Purposes (ETS no. 123) and Belgian law controlling the experiments on animals (Royal Decree of 29 May 2013 for the protection of laboratory animals). Animals were allowed minimum five days to acclimatise upon arrival from the supplier, and they were housed in polysulphone cages (58 × 52 × 20 cm) in groups of six provided with wooden sticks for enrichment. Animals had free access to Safe 04 Maintenance Diet (Safe, Rosenberg, Germany) and water during acclimatisation and during the study.\nMale Sprague Dawley rats (Charles River, Dortmund, Germany) weighing 293–358 g were randomly assigned into six groups of six animals. Formulations were prepared as clear solutions in 40% v/v ethanol–water and 10 mL/kg was administered to each animal by oral gavage. […] Plasma samples were taken by tail vein puncture with a needle followed by collection in 32–64 µL micro haematocrit tubes (Vitrex Medical, Herlev, Denmark) at times 15, 30, and 45 min and 1, 2, 3, 4, and 6 h. Samples were centrifuged, and plasma was transferred into 10 µL end-to-end pipettes (Vitrex Medical, Herlev, Denmark) and immediately frozen at −80 °C until bioanalysis. Immediately after the study, animals were euthanised according to the principles of euthanasia stated in the AVMA Guidelines for the Euthanasia of Animals (American Veterinary Medical Association, 2020). Plasma samples were analysed by a previously described qualified LC-MS/MS method.\nPharmacokinetic parameters were calculated individually for each animal subject and pooled for statistical analysis. The plasma concentration at 15 min (C15min) was reported as an average of the plasma concentration of the six animals in each group. […] Elimination rate constants (ke) were calculated by linear regression of the linear part of the ln(plasma concentration) versus time profiles, and plasma half-life (t½) was calculated from ke:(3) t½=ln (2)/ke"}, "P-gp": {"molecular_target": "P-gp (Homo sapiens, UniProt P08183)", "sequence (P08183 whole entry)": "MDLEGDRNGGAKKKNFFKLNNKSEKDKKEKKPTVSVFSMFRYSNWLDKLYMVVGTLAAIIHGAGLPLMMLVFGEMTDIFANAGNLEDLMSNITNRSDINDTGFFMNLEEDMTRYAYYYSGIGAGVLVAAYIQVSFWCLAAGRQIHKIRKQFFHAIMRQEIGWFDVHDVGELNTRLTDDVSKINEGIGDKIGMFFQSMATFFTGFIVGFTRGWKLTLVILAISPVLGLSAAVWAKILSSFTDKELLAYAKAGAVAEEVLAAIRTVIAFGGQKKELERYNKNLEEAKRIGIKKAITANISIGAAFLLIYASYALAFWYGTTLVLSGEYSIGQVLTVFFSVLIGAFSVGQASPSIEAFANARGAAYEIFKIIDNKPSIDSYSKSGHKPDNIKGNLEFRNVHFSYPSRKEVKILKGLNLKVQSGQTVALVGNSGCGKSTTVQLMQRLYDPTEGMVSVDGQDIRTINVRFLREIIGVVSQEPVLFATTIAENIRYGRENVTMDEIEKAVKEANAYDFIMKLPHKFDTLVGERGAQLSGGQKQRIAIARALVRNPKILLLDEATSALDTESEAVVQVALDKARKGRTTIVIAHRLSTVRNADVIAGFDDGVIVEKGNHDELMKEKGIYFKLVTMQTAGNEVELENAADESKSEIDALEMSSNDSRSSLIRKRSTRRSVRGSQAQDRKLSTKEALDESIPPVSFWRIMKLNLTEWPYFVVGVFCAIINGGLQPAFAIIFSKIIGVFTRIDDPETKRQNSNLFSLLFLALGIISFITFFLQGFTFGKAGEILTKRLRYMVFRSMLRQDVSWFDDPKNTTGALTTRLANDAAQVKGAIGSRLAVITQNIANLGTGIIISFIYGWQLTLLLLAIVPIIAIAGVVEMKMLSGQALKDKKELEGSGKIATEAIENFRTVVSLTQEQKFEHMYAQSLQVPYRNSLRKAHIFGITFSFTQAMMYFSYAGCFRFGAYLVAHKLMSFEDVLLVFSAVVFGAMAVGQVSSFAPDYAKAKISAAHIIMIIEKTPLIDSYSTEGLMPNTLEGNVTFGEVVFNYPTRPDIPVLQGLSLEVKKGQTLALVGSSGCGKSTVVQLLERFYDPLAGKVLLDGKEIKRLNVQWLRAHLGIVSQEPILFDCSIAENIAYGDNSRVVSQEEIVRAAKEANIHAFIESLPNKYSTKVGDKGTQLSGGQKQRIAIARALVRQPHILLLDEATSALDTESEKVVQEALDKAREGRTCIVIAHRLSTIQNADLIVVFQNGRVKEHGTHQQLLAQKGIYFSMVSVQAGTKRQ", "assay": "Transcellular etoposide permeability across Caco-2 cell monolayers", "settings": "Caco-2, spike method, 2.5 nM zosuquidar vs 2.5 nM zosuquidar + 0.2 µM polysorbate 20", "procedure": "All were carried out in four independent cell passages. Transcellular permeability studies were performed in HEPES HBSS pH 7.4 and were assessed in the basolateral (B) to apical (A) and A–B direction for series (1) and (3) and in the B–A direction for series (2). […] Test solutions were either prepared by conventional serial dilution for series (1)–(2) or by a spike method for series (3).\nBefore the transport experiment, growth medium was removed from the cells by vacuum suction (Vacusip, Integra Biosciences, NH, USA), followed by a 10 min equilibration in HEPES HBSS pH 7.4 on a Talboys 1000 MP incubating microplate shaker (Troemner, NJ, USA, 220 rpm, 37 °C). Then, the buffer was removed, and donor and acceptor solutions were added, with a total of 500 and 1000 µL to the A and B compartment, respectively. […] At 120 min, a sample was taken from the donor compartment and diluted in mobile phase. Samples were analysed by HPLC-FL, and for series (2) and (3), 50 µL sample was transferred to a black, clear-bottom 96-well plate for lucifer yellow quantification.\nPapp was calculated by dividing the flux with the measured donor concentration."}, "[3]": {"settings": "group D*: etoposide 20 mg/kg oral alone"}, "[4]": {"settings": "group F*: etoposide 20 mg/kg + zosuquidar 0.63 mg/kg oral"}, "[5]": {"settings": "group G*: etoposide 20 mg/kg + zosuquidar 2.0 mg/kg oral"}, "[6]": {"settings": "group H*: etoposide 20 mg/kg + zosuquidar 6.3 mg/kg oral"}, "[7]": {"settings": "group B: etoposide 20 mg/kg + zosuquidar 0.63 mg/kg + 1.0% v/v polysorbate 20 oral"}, "[8]": {"settings": "group D: etoposide 20 mg/kg + zosuquidar 2.0 mg/kg + 5.0% v/v polysorbate 20 oral"}, "[9]": {"settings": "group E: etoposide 20 mg/kg + zosuquidar 6.3 mg/kg + 5.0% v/v polysorbate 20 oral"}, "[10]": {"settings": "group F: etoposide 20 mg/kg + zosuquidar 6.3 mg/kg + 10% v/v polysorbate 20 oral"}, "[11]": {"settings": "20 mg/kg, group A: etoposide 20 mg/kg + 1.0% v/v polysorbate 20 oral"}, "[12]": {"settings": "20 mg/kg, group C: etoposide 20 mg/kg + 5.0% v/v polysorbate 20 oral"}, "[13]": {"settings": "20 mg/kg, group B: etoposide 20 mg/kg + zosuquidar 0.63 mg/kg + 1.0% v/v polysorbate 20 oral"}, "[14]": {"settings": "20 mg/kg, group D: etoposide 20 mg/kg + zosuquidar 2.0 mg/kg + 5.0% v/v polysorbate 20 oral"}, "[15]": {"settings": "20 mg/kg, group E: etoposide 20 mg/kg + zosuquidar 6.3 mg/kg + 5.0% v/v polysorbate 20 oral"}, "[16]": {"settings": "20 mg/kg, group F: etoposide 20 mg/kg + zosuquidar 6.3 mg/kg + 10% v/v polysorbate 20 oral"}}, "note": "Like-named read-outs stand apart in the source and are kept apart here."}
{"smiles": "COc1cc([C@@H]2c3cc4c(cc3[C@@H](O[C@@H]3O[C@@H]5CO[C@@H](C)O[C@H]5[C@H](O)[C@H]3O)[C@H]3COC(=O)[C@H]23)OCO4)cc(OC)c1O", "note": "[etoposide]", "values": [{"measurement": "Etoposide AUC0–6h", "setting": "[1]; [3]", "result": "947 ± 156", "unit": "ng·h/mL"}, {"measurement": "Etoposide Cmax", "setting": "[1]; [3]", "result": "390 ± 84", "unit": "ng/mL"}, {"measurement": "Etoposide bioavailability", "setting": "[1]; [3]", "result": "5.51 ± 0.91", "unit": "%"}, {"measurement": "Etoposide tmax, median [Q1; Q3]", "setting": "[1]; [3]", "result": "15 [15;30] min"}, {"measurement": "Etoposide t½", "setting": "[1]; [3]", "result": "80.8 ± 13.2", "unit": "min"}, {"measurement": "Etoposide AUC0–6h", "setting": "[1]; [4]", "result": "2470 ± 440", "unit": "ng·h/mL"}, {"measurement": "Etoposide Cmax", "setting": "[1]; [4]", "result": "1590 ± 290", "unit": "ng/mL"}, {"measurement": "Etoposide bioavailability", "setting": "[1]; [4]", "result": "14.4 ± 2.5", "unit": "%"}, {"measurement": "Etoposide tmax, median [Q1; Q3]", "setting": "[1]; [4]", "result": "45 [15;45] min"}, {"measurement": "Etoposide t½", "setting": "[1]; [4]", "result": "39.3 ± 3.0", "unit": "min"}, {"measurement": "Etoposide AUC0–6h", "setting": "[1]; [5]", "result": "3860 ± 500", "unit": "ng·h/mL"}, {"measurement": "Etoposide Cmax", "setting": "[1]; [5]", "result": "2240 ± 540", "unit": "ng/mL"}, {"measurement": "Etoposide bioavailability", "setting": "[1]; [5]", "result": "22.4 ± 2.9", "unit": "%"}, {"measurement": "Etoposide tmax, median [Q1; Q3]", "setting": "[1]; [5]", "result": "38 [26;60] min"}, {"measurement": "Etoposide t½", "setting": "[1]; [5]", "result": "51.4 ± 2.4", "unit": "min"}, {"measurement": "Etoposide AUC0–6h", "setting": "[1]; [6]", "result": "4270 ± 470", "unit": "ng·h/mL"}, {"measurement": "Etoposide Cmax", "setting": "[1]; [6]", "result": "2110 ± 200", "unit": "ng/mL"}, {"measurement": "Etoposide bioavailability", "setting": "[1]; [6]", "result": "24.8 ± 2.7", "unit": "%"}, {"measurement": "Etoposide tmax, median [Q1; Q3]", "setting": "[1]; [6]", "result": "45 [15;60] min"}, {"measurement": "Etoposide t½", "setting": "[1]; [6]", "result": "56.5 ± 4.8", "unit": "min"}, {"measurement": "Etoposide tmax, median [Q1; Q3]", "setting": "[2]; group A: etoposide 20 mg/kg + 1.0% v/v polysorbate 20 oral", "result": "30 [30;34] min"}, {"measurement": "Etoposide tmax, median [Q1; Q3]", "setting": "[2]; [7]", "result": "45 [30;49] min"}, {"measurement": "Etoposide tmax, median [Q1; Q3]", "setting": "[2]; group C: etoposide 20 mg/kg + 5.0% v/v polysorbate 20 oral", "result": "30 [26;30] min"}, {"measurement": "Etoposide tmax, median [Q1; Q3]", "setting": "[2]; [8]", "result": "38 [30;60] min"}, {"measurement": "Etoposide tmax, median [Q1; Q3]", "setting": "[2]; [9]", "result": "45 [41;49] min"}, {"measurement": "Etoposide tmax, median [Q1; Q3]", "setting": "[2]; [10]", "result": "45 [41;60] min"}, {"measurement": "Etoposide t½", "setting": "[2]; [10]", "result": "56.4 ± 2.2", "unit": "min"}, {"measurement": "concentration at 15 min", "setting": "[2]; [11]", "result": "404 ± 58", "unit": "ng/mL"}, {"measurement": "concentration at 15 min", "setting": "[2]; [12]", "result": "1130 ± 140", "unit": "ng/mL"}, {"measurement": "concentration at 15 min", "setting": "[2]; [7]", "result": "1140 ± 120", "unit": "ng/mL"}, {"measurement": "concentration at 15 min", "setting": "[2]; [8]", "result": "1010 ± 100", "unit": "ng/mL"}, {"measurement": "concentration at 15 min", "setting": "[2]; [9]", "result": "923 ± 103", "unit": "ng/mL"}, {"measurement": "concentration at 15 min", "setting": "[2]; [10]", "result": "579 ± 52", "unit": "ng/mL"}, {"measurement": "Cmax", "setting": "[2]; [11]", "result": "711 ± 86", "unit": "ng/mL"}, {"measurement": "Cmax", "setting": "[2]; [13]", "result": "1750 ± 160", "unit": "ng/mL"}, {"measurement": "Cmax", "setting": "[2]; [12]", "result": "1220 ± 140", "unit": "ng/mL"}, {"measurement": "Cmax", "setting": "[2]; [14]", "result": "1430 ± 180", "unit": "ng/mL"}, {"measurement": "Cmax", "setting": "[2]; [15]", "result": "1300 ± 130", "unit": "ng/mL"}, {"measurement": "Cmax", "setting": "[2]; [16]", "result": "1020 ± 70", "unit": "ng/mL"}, {"measurement": "AUC(0-t)", "setting": "[2]; [11]", "result": "921 ± 84", "unit": "ng·h/mL"}, {"measurement": "AUC(0-t)", "setting": "[2]; [13]", "result": "2610 ± 240", "unit": "ng·h/mL"}, {"measurement": "AUC(0-t)", "setting": "[2]; [12]", "result": "1970 ± 240", "unit": "ng·h/mL"}, {"measurement": "AUC(0-t)", "setting": "[2]; [14]", "result": "3080 ± 380", "unit": "ng·h/mL"}, {"measurement": "AUC(0-t)", "setting": "[2]; [15]", "result": "2800 ± 200", "unit": "ng·h/mL"}, {"measurement": "AUC(0-t)", "setting": "[2]; [16]", "result": "2310 ± 160", "unit": "ng·h/mL"}, {"measurement": "bioavailability", "setting": "[2]; [11]", "result": "5.35 ± 0.49", "unit": "%"}, {"measurement": "bioavailability", "setting": "[2]; [13]", "result": "15.2 ± 1.4", "unit": "%"}, {"measurement": "bioavailability", "setting": "[2]; [12]", "result": "11.5 ± 1.4", "unit": "%"}, {"measurement": "bioavailability", "setting": "[2]; [14]", "result": "17.9 ± 2.2", "unit": "%"}, {"measurement": "bioavailability", "setting": "[2]; [15]", "result": "16.3 ± 1.2", "unit": "%"}, {"measurement": "bioavailability", "setting": "[2]; [16]", "result": "13.4 ± 1", "unit": "%"}, {"measurement": "half-life", "setting": "[2]; [11]", "result": "42.4 ± 2.4", "unit": "min"}, {"measurement": "half-life", "setting": "[2]; [13]", "result": "37.2 ± 1.2", "unit": "min"}, {"measurement": "half-life", "setting": "[2]; [12]", "result": "43.3 ± 2", "unit": "min"}, {"measurement": "half-life", "setting": "[2]; [14]", "result": "52.9 ± 2.8", "unit": "min"}, {"measurement": "half-life", "setting": "[2]; [15]", "result": "54.7 ± 4.5", "unit": "min"}, {"measurement": "difference in mean etoposide Papp", "setting": "P-gp", "result": "no difference"}]}
